Marks after values point to notes of the source that are not given here.
What was measured:
[1] = Nanoparticle size by dynamic light scattering; assay type: physicochemical
Protocol: The volume and size distribution of the nanoparticles was determined by dynamic light scattering at 633 nm (Zetasizer Nano ZS, Malvern Instruments Limited, Malvern, Worcestershire, UK). Nanoconjugate size was also measured using purified samples, diluted to 0.2 mg/mL and contrasted by evaporation of 1 nm platinum layer in carbon-coated grids, before being visualized in a Hitachi H-7000 transmission electron microscope (TEM), as described33.

SW1417 CRC cells = test: MTT cytotoxicity in SW1417 CRC cells; assay type: cell-based, human; settings: compared to free oligo-FdU, 72 h, 1.0-1,000 nM
[2] = tested on: CXCR4^+ HeLa human cervical carcinoma cell line; test: Internalization in CXCR4+ HeLa cells (flow cytometry, AMD3100 competition); assay type: cell-based; settings: 1 hour exposure, 1 μM
Protocol: To assess specificity for CXCR4 receptor mediated internalization, competition studies incubating CXCR4^+ HeLa cells with the CXCR4 antagonist AMD3100 (octahydrochloride hydrate, Sigma-Aldrich) were performed in a 1:10 (Protein:antagonist) molar ratio for 1 h before exposure to the nanoconjugate, as previously described for the T22-GFP-H6.
Nuclei were labeled with Hoechst 33342 (Life Technologies) and plasma membranes CellMask™ Deep Red (Life Technologies).

CXCR4^+ HeLa cells = test: MTT cytotoxicity in CXCR4+ HeLa cells; assay type: cell-based, human; settings: compared to free oligo-FdU
Protocol: Afterwards, a graphic displaying the linearized T22-GFP-H6-FdU dose-response trend line representation to compare cell viability for both compounds was constructed. Reduction of cell viability was also determined by optical microscope images of HeLa cells exposed to 1 μM […] for 48 h, as compared to T22-GFP-H6 or free FdU.

[3] = tested on: subcutaneous CXCR4^+ SW1417 CRC tumor; test: Induction of DNA double strand breaks and apoptosis in tumor tissue, SC SW1417 model; assay type: in vivo, mouse
Protocol: (§1) The SC SW1417 mouse model was used to determine the capacity of the nanoconjugate to induce DNA damage and apoptosis in tumor tissue, as well as the kinetics of CXCR4 expression in the membrane of tumor cells after treatment, regarding the fraction of CXCR4 expressing tumor cells and their intensity, since CXCR4^+ are the target cells for the nanoconjugate. […] The mice had been treated with equimolecular dosages of T22-GFP-H6, free oligo-FdU or Buffer, in which also were determined the levels of CXCR4 expression in tumor tissue at the different time points.

[4] = tested on: CXCR4^+ cancer cells in SC SW1417 CRC tumor; test: CXCR4+ cancer cell fraction in tumor tissue along time after single dose (anti-CXCR4 IHC); assay type: in vivo, mouse
Protocol: as §1

[5] = tested on: CXCR4^+ SW1417 CRC metastases; test: Prevention of metastasis protocol, SC+ORT CXCR4+ SW1417 CRC model; assay type: in vivo, NOD/SCID mice
Protocol: Thus, a SC+ORT model, was produced: when SC tumors reached a volume of 700 mm3, mice were sacrificed by cervical dislocation and tumours were excised, discarding the necrotic areas. Three hundred mg of viable tumour tissue was then cut into pieces and disaggregated in a mix of 0.05% trypsin (Invitrogen) and 100 mg/ml DNase (Sigma-Aldrich). The mix was pipetted 30 times, using a 10 ml pipette, and incubated for 10 minutes at 37° C. with shaking. It was then re-pipetted 30 times, using 10 ml, 3 ml and 1 ml pipettes, and re-incubated for 5 minutes at 37° C. with shaking. This re-pipetting step was then repeated. The obtained SW1417 single-cell suspension was filtered through a cell strainer and centrifuged at 1,000 g for 10 minutes before counting the cells. Then 2×10^6 cells, […] resuspended in 50 μl of media, were microinjected in the cecum of each mouse, following the method described above.
The SC+ORT metastatic CRC model developed in NOD/SCID mice was used to evaluate the capacity of the nanoconjugate for metastasis prevention.
At necropsy, the number and size of visible metastases in the organs where dissemination is expected in colorectal cancer (lymph nodes, liver, lung and peritoneum) were recorded for each mouse in all compared groups. Also the number of metastatic foci that emitted bioluminiscence (derived from the SW1417-luci CRC cells) were counted ex vivo in the target organs for metastasis, using the IVIS® 200-Spectrum (Perkin-Elmer). Samples for histopathological and immunohistochemical analyses were collected and processed. Two independent observers analyzed H&E stained samples to count the number and measure the size of all observed metastatic foci in three (metastasis prevention experiment) or six (regression of metastasis experiment) sections of each organ in each mouse. The images were taken and the measurements were performed with an Olympus microscope with the CellD Olympus software (v3.3). […] The obtained results were used to study a possible correlation between CXCR4^+ CCF and antimetastatic effect at the different sites.
In order to analyze differences between control and experimental groups of affected mice in metastatic rates at the different organs, Fisher's exact test was used. The Mann-Whitney test was used to compare number and size of metastatic foci in the affected organs among groups. All quantitative values were expressed as mean±SE and the statistical tests were performed using SPSS version 11.0 (IBM, New York, USA). Differences among groups was considered significant at a p<0.05.

[6] = Biodistribution and toxicity in normal organs, bone marrow and circulating blood cells; assay type: in vivo, mouse
Protocol: At necropsy, bone marrow was extracted and registered ex vivo in the IVIS® 200-Spectrum equipment. Mouse blood was collected by punction in the maxillary plexus. The erythrocytes, leucocytes and platelets were isolated by the Ficoll density gradient method using the standard protocol. Further, pellets were obtained by centrifugation of the isolated cell extracts at 600 g, 10 min and then recorded to measure fluorescence using IVIS® 200-Spectrum.
In addition, two independent observers evaluated the possible histopathological alterations observed in H&E stained non-tumor tissue samples, searching for signs of toxicity.

[7] = Prevention protocol, 3 histology sections, mean + SE
[8] = versus free oligo-FdU mice, histology, end of experiment

**Q.** What does the source list for “T22-GFP-H6-FdU: nanoconjugate of T22-GFP-H6 protein nanoparticle covalently bound via maleimide linker to thiol-functionalized pentameric floxuridine oligonucleotide (oligo-FdU)”?
**A.** size determined by dynamic light scattering ([1]; Example 2, unit not given): 14.6+0.14; size (DLS) ([1]; Example 3): 14.66+0.14 nm; cytotoxicity measured by cell viability or phase-contrast microscopy (SW1417 CRC cells): significantly higher cytotoxicity than free oligo-FdU; internalization in HeLa cells [2]: CXCR4-dependent nanoconjugate internalization; cytotoxicity in HeLa cells (CXCR4^+ HeLa cells): higher cytotoxicity than free oligo-FdU; number of apoptotic figures in tumor tissue (Hoechst nuclear condensation or defragmentation) ([3]; 24 h after injection): 13.9±0.5; number of DSBs foci in tumors (anti-gH2AX IHC) ([3]; five hours after treatment): 22.8±1.4; CXCR4^+ CCF remaining in tumor tissue ([4]; 24 h after single dose): reduced; CXCR4^+ CCF remaining in tumor tissue ([4]; 48 h after single dose): undetectable; LN foci, mean foci number per mouse ([5]; Prevention protocol, 20 μg (or equimolecular) q3d x12 i.v., 3 histology sections, mean + SE): 2.0 ± 0.4 ^a; Liver foci, mean foci number per mouse [5, 7]: 0.2 ± 0.1 ^b,c; Lung foci, mean foci number per mouse [5, 7]: 1.3 ± 0.9 ^d,e; Peritoneal foci, mean foci number per mouse [5, 7]: 0.4 ± 0.3 ^f,g; reduction in the size of peritoneal foci ([5]; compared to free oligo-FdU): 2.4 fold; Metastasis Liver [%] ([5]; end of prevention experiment): [17]^a %; Metastasis Liver, affected/total mice ([5]; end of prevention experiment): 2/12; Metastasis Lung [%] ([5]; end of prevention experiment): [17]^b,c %; Metastasis Lung, affected/total mice ([5]; end of prevention experiment): 2/12; Metastasis Lymph nodes [%] ([5]; end of prevention experiment): [75] %; Metastasis Lymph nodes, affected/total mice ([5]; end of prevention experiment): 9/12; Metastasis Peritoneal [%] ([5]; end of prevention experiment): [17]^d %; Metastasis Peritoneal, affected/total mice ([5]; end of prevention experiment): 2/12; metastasis development in liver and lung by ex vivo luminescence ([5]; end of prevention experiment): blocked metastasis development; remaining CXCR4^+ CCF in liver, lung and peritoneal metastatic tissue (anti-CXCR4 IHC) ([5]; end of prevention experiment): higher reduction; prevention of LN metastases ([5]; histology, end of experiment): did not prevent; Metastasis Size, Liver ([5]; mean foci size): 8.7 μm^2 × 10^−3; Metastasis Size, Lung ([5]; mean foci size): 15.1 μm^2 × 10^−3; Metastasis Size, Lymph nodes ([5]; mean foci size): 79.3 μm^2 × 10^−3; Metastasis Size, Peritoneal ([5]; mean foci size): 126.6 μm^2 × 10^−3; Primary tumor Positive/#Mice ([5]; mice bearing a primary tumor out of total mice per group): 12/12; Primary tumor [%] ([5]; percent of mice bearing a primary tumor): [100] %; primary tumor growth by in vivo bioluminescence emission ([5]; prevention experiment, compared to buffer-treated mice): no significant inhibition; reduction in the total number of metastases in liver or lung [5, 8]: 3.1-3.7 times; reduction in the total number of metastases in the peritoneum [5, 8]: 10.3 fold; fluorescence emission in erythrocytes, leucocytes or platelets ([6]; 5 h after doses in the 10-100 μg range): Lack of fluorescence emission; fluorescence emission in spleen or bone marrow ([6]; 5 h after single injections, 10-100 μg range): Lack of fluorescence emission; level of DSBs in liver (anti-gH2AX IHC) ([6]; 5 h after treatment): undetectable; apoptosis or histological alteration in bone marrow or liver ([6]; 24 h post-administration): not detected; mouse body weight ([6]; regression and prevention of metastases experiments): lack of mouse body weight loss
